Where “and” joins values, the source holds several entries; their conditions need not be identical. Equal values may be shown once. Toxic doses and inconclusive results are not listed.
System: P388 leukemia ip, CD2F1 mice, survival T/C
Experiment: NCI In Vivo Anticancer Drug Screen. Data for tumor model P388 Leukemia (intraperitoneal) in CD2F1 (CDF1) mice
Settings: endpoint: median survival time, higher = longer survival
Method in brief: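 Mice carrying the transplanted tumor received test compound or vehicle. Survival was recorded in each group, and the value is the treated-group measurement divided by that of the vehicle-treated control group.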

[1] = dose: 50.0 mg/kg/injection, schedule: Q01DX005 (ip), vehicle: Klucel (hydroxypropylcellulose) (HPC)
[2] = dose: 100.0 mg/kg/injection, schedule: Q01DX005 (ip), vehicle: Klucel (hydroxypropylcellulose) (HPC)
[3] = dose: 200.0 mg/kg/injection, schedule: Q01DX005 (ip), vehicle: Klucel (hydroxypropylcellulose) (HPC)
[4] = dose: 50.0 mg/kg/injection, schedule: Q01DX009 (ip), vehicle: saline with Tween-80
[5] = dose: 100.0 mg/kg/injection, schedule: Q01DX009 (ip), vehicle: saline with Tween-80
[6] = dose: 200.0 mg/kg/injection, schedule: Q01DX009 (ip), vehicle: saline with Tween-80
[7] = dose: 25.0 mg/kg/injection, schedule: Q04DX003 (ip), vehicle: saline
[8] = dose: 50.0 mg/kg/injection, schedule: Q04DX003 (ip), vehicle: saline
[9] = dose: 100.0 mg/kg/injection, schedule: Q04DX003 (ip), vehicle: saline
[10] = dose: 100.0 mg/kg/injection, schedule: Q04DX002 (ip), vehicle: saline with Tween-80
[11] = dose: 400.0 mg/kg/injection, schedule: Q01DX009 (ip), vehicle: saline with Tween-80
[12] = dose: 50.0 mg/kg/injection, schedule: Q01DX005 (ip), vehicle: saline with Tween-80
[13] = dose: 100.0 mg/kg/injection, schedule: Q01DX005 (ip), vehicle: saline with Tween-80
[14] = dose: 200.0 mg/kg/injection, schedule: Q01DX005 (ip), vehicle: saline with Tween-80
[15] = dose: 25.0 mg/kg/injection, schedule: Q04DX003 (ip), vehicle: Klucel (hydroxypropylcellulose) (HPC)
[16] = dose: 50.0 mg/kg/injection, schedule: Q04DX003 (ip), vehicle: Klucel (hydroxypropylcellulose) (HPC)
[17] = dose: 60.0 mg/kg/injection, schedule: Q01DX005 (ip), vehicle: saline with Tween-80
[18] = dose: 120.0 mg/kg/injection, schedule: Q01DX005 (ip), vehicle: saline with Tween-80
[19] = dose: 240.0 mg/kg/injection, schedule: Q01DX005 (ip), vehicle: saline with Tween-80

OCC(O)C(O)C(O)C(O)C(O)c1nc2ccccc2[nH]1 (stereo not given)
T/C [1]: 98 % of control
T/C [2]: 102 % of control
T/C [3]: 100 % of control

O=C(c1ccccc1)N1C=CN(C(=O)c2ccccc2)C1c1nccn1C(=O)c1ccccc1
T/C [4]: 105 % of control
T/C [5]: 96 % of control
T/C [6]: 91 % of control

CCOC(=O)C(=O)c1cn(C)c(=O)n(C)c1=O
T/C [4]: 106 % of control
T/C [5]: 104 % of control
T/C [6]: 104 % of control

Cc1cccc[n+]1CC(=O)C[n+]1ccccc1C
T/C (dose: 50.0 mg/kg/injection, schedule: Q01DX005 (ip), vehicle: saline): 95 % of control
T/C (dose: 100.0 mg/kg/injection, schedule: Q01DX005 (ip), vehicle: saline): 101 % of control

CNCC1CCCO1 (stereo not given)
T/C [7]: 100 % of control
T/C [8]: 100 % of control
T/C [9]: 100 % of control
T/C (dose: 200.0 mg/kg/injection, schedule: Q04DX003 (ip), vehicle: saline): 99 % of control

O=C(NC12CC3CC(CC(C3)C1)C2)OCCN1CCN(CCCN2c3ccccc3Sc3ccc(C(F)(F)F)cc32)CC1
T/C (dose: 25.0 mg/kg/injection, schedule: Q04DX002 (ip), vehicle: saline with Tween-80): 97 % of control
T/C (dose: 50.0 mg/kg/injection, schedule: Q04DX002 (ip), vehicle: saline with Tween-80): 101 % of control
T/C [10]: 104 % of control and 113 % of control

C=CC(=O)NC(CSCc1ccccc1)C(=O)O (stereo not given)
T/C [1]: 98 % of control
T/C [2]: 109 % of control
T/C [3]: 98 % of control

COC(=O)N/N=C(/CC1(O)C(=O)Nc2ccc(Br)cc21)c1ccc(Cl)cc1Cl (stereo not given)
T/C [10]: 89 % of control
T/C (dose: 200.0 mg/kg/injection, schedule: Q04DX002 (ip), vehicle: saline with Tween-80): 95 % of control
T/C (dose: 400.0 mg/kg/injection, schedule: Q04DX002 (ip), vehicle: saline with Tween-80): 100 % of control

NC(=S)c1cncnc1N
T/C (dose: 25.0 mg/kg/injection, schedule: Q04DX003 (ip), vehicle: saline with Tween-80): 102 % of control
T/C (dose: 50.0 mg/kg/injection, schedule: Q04DX003 (ip), vehicle: saline with Tween-80): 99 % of control
T/C (dose: 100.0 mg/kg/injection, schedule: Q04DX003 (ip), vehicle: saline with Tween-80): 104 % of control

CC1=CC(=O)C=CC1(C)C(Cl)(Cl)Cl (stereo not given)
T/C [4]: 110 % of control
T/C [5]: 110 % of control
T/C [6]: 105 % of control

CC(C)Cc1cc(-c2cc(CC(C)C)nc(N)n2)nc(N)n1
T/C (dose: 60.0 mg/kg/injection, schedule: Q01DX005 (ip), vehicle: saline): 100 % of control
T/C (dose: 120.0 mg/kg/injection, schedule: Q01DX005 (ip), vehicle: saline): 90 % of control

NN(CC(O)COc1ccccc1)C(=O)c1ccccc1O (stereo not given)
T/C (dose: 50.0 mg/kg/injection, schedule: Q01DX009 (ip), vehicle: Klucel (hydroxypropylcellulose) (HPC)): 108 % of control
T/C (dose: 100.0 mg/kg/injection, schedule: Q01DX009 (ip), vehicle: Klucel (hydroxypropylcellulose) (HPC)): 108 % of control
T/C (dose: 200.0 mg/kg/injection, schedule: Q01DX009 (ip), vehicle: Klucel (hydroxypropylcellulose) (HPC)): 106 % of control

NC(=O)C1=C(N)CCC1
T/C [5]: 90 % of control
T/C [6]: 90 % of control
T/C [11]: 100 % of control

O=C(NC(O)C(Cl)(Cl)Cl)C(Cl)(Cl)Cl (stereo not given)
T/C [12]: 100 % of control
T/C [13]: 95 % of control
T/C [14]: 107 % of control

COC(=O)[CH2][Sn]([CH2]C(=O)OC)([CH]1CCCCC1)[CH]1CCCCC1
T/C (dose: 1.56 mg/kg/injection, schedule: Q01DX005 (ip), vehicle: Klucel (hydroxypropylcellulose) (HPC)): 104 % of control
T/C (dose: 3.12 mg/kg/injection, schedule: Q01DX005 (ip), vehicle: Klucel (hydroxypropylcellulose) (HPC)): 88 % of control
T/C (dose: 6.25 mg/kg/injection, schedule: Q01DX005 (ip), vehicle: Klucel (hydroxypropylcellulose) (HPC)): 111 % of control and 88 % of control

N=c1c2ccccc2nc2n1CCCCCCC2
T/C [15]: 103 % of control
T/C [16]: 91 % of control

CCCCCCCCCc1cccc(N2C(N)=NC(N)=NC2(C)C)c1
T/C (dose: 7.5 mg/kg/injection, schedule: Q01DX005 (ip), vehicle: saline with Tween-80): 106 % of control

O=C(O)c1ccnc2ccc3ccccc3c12
T/C [12]: 93 % of control
T/C [13]: 109 % of control
T/C [14]: 118 % of control

O=C1CCCCCCCCCCC1Br (stereo not given)
T/C [5]: 100 % of control
T/C [6]: 99 % of control
T/C [11]: 105 % of control

CCOC(=O)N(NC(=O)c1ccccc1)C(C)=O
T/C (dose: 12.5 mg/kg/injection, schedule: Q01DX009 (ip), vehicle: other): 111 % of control
T/C (dose: 25.0 mg/kg/injection, schedule: Q01DX009 (ip), vehicle: other): 109 % of control
T/C (dose: 50.0 mg/kg/injection, schedule: Q01DX009 (ip), vehicle: other): 99 % of control

Nc1n[nH]c2ccccc12
T/C [1]: 104 % of control and 107 % of control
T/C [2]: 105 % of control and 107 % of control
T/C [3]: 117 % of control

Cn1c(=O)c2nc3n(c2n(C)c1=O)CCC(C)(c1ccccc1)O3 (stereo not given)
T/C [17]: 96 % of control
T/C [18]: 91 % of control
T/C [19]: 91 % of control

CC(C)(C)OC(=O)NC(CC(=O)O)C(=O)O (stereo not given)
T/C (dose: 50.0 mg/kg/injection, schedule: Q01DX009 (ip), vehicle: saline): 111 % of control
T/C (dose: 100.0 mg/kg/injection, schedule: Q01DX009 (ip), vehicle: saline): 93 % of control
T/C (dose: 200.0 mg/kg/injection, schedule: Q01DX009 (ip), vehicle: saline): 104 % of control

CCOC(=O)CNC1CC(O[C@H]2C[C@](O)(C(C)=O)Cc3c(O)c4c(c(O)c32)C(=O)c2c(OC)cccc2C4=O)OC(C)C1O (stereo not given in full)
T/C [15]: 103 % of control
T/C [16]: 110 % of control
T/C (dose: 100.0 mg/kg/injection, schedule: Q04DX003 (ip), vehicle: Klucel (hydroxypropylcellulose) (HPC)): 109 % of control
T/C (dose: 200.0 mg/kg/injection, schedule: Q04DX003 (ip), vehicle: Klucel (hydroxypropylcellulose) (HPC)): 100 % of control

CSC1C(=O)N2CCCc3cccc1c32 (stereo not given)
T/C [17]: 105 % of control
T/C [18]: 96 % of control
T/C [19]: 96 % of control

COC(=O)C1(C2CCCCCCC2=O)NC(=S)NC(=O)C1C#N (stereo not given)
T/C [17]: 92 % of control
T/C [18]: 99 % of control
T/C [19]: 99 % of control

COCOc1cc(OCc2ccccc2)ccc1C(=O)/C=C/c1cc2c(cc1OCc1ccccc1)OCO2
T/C (dose: 100.0 mg/kg/injection, schedule: Q01DX001 (ip), vehicle: Klucel (hydroxypropylcellulose) (HPC)): 105 % of control
T/C (dose: 200.0 mg/kg/injection, schedule: Q01DX001 (ip), vehicle: Klucel (hydroxypropylcellulose) (HPC)): 102 % of control
T/C (dose: 400.0 mg/kg/injection, schedule: Q01DX001 (ip), vehicle: Klucel (hydroxypropylcellulose) (HPC)): 105 % of control

CC(=O)N1CCCC2=C1CCCC2
T/C [7]: 100 % of control
T/C [8]: 103 % of control
T/C [9]: 104 % of control and 92 % of control
T/C (dose: 400.0 mg/kg/injection, schedule: Q04DX003 (ip), vehicle: saline): 101 % of control

C1=CN2C(c3ccccc3)=NON(c3ncccn3)C2N=C1 (stereo not given)
T/C [17]: 96 % of control
T/C [18]: 91 % of control
T/C [19]: 90 % of control

Nc1nc(N)c2cc(CNc3ccc(C(=O)NC(C(=O)O)C(=O)O)cc3)ccc2n1
T/C (dose: 0.05 mg/kg/injection, schedule: Q01DX009 (ip), vehicle: saline sonified): 168 % of control
T/C (dose: 0.1 mg/kg/injection, schedule: Q01DX009 (ip), vehicle: saline sonified): 204 % of control
T/C (dose: 0.2 mg/kg/injection, schedule: Q01DX009 (ip), vehicle: saline sonified): 86 % of control
T/C (dose: 100.0 micrograms/kg/injection, schedule: Q01DX009 (ip), vehicle: saline sonified): 159 % of control

CN(C)c1nc(N)nc2c1nc(Cl)n2C1OC(CO)C(O)C1O (stereo not given)
T/C [12]: 99 % of control
T/C [13]: 100 % of control
T/C [14]: 100 % of control

CN(C)/C=C/c1ccc([N+](=O)[O-])o1
T/C (dose: 50.0 mg/kg/injection, schedule: Q01DX009 (ip), vehicle: suspension in saline): 100 % of control
T/C (dose: 100.0 mg/kg/injection, schedule: Q01DX009 (ip), vehicle: suspension in saline): 104 % of control
T/C (dose: 200.0 mg/kg/injection, schedule: Q01DX009 (ip), vehicle: suspension in saline): 118 % of control

From PubChem BioAssay AID330 (DTP/NCI, 2004)
